Experimental data from ChEMBL document CHEMBL5212743, “Selectivity Literature for EUbOPEN Chemogenomics Library wave 3” (2023).
One block for each compound: values may come before it.

Key:
[1] = target: T1, Dual specificity mitogen-activated protein kinase kinase 5 (Homo sapiens, UniProt Q13163); test: Selectivity interaction (Enzymatic assay) EUB0000305b MAP2K5
T1 sequence (Q13163 whole entry): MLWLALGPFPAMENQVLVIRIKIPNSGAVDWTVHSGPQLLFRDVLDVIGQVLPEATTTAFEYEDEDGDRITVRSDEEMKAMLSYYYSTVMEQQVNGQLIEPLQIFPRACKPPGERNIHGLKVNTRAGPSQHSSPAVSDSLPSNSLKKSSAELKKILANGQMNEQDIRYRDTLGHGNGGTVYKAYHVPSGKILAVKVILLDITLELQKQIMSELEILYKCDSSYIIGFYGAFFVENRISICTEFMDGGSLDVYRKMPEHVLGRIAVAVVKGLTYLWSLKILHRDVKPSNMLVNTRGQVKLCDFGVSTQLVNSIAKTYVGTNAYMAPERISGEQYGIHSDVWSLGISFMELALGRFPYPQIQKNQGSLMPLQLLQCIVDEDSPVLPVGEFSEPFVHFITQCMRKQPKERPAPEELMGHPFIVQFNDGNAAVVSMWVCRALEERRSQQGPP

[2] = target: STE20-like serine/threonine-protein kinase (Homo sapiens, UniProt Q9H2G2); test: Selectivity interaction (KinomeScan (DiscoverX)) EUB0000698a SLK; conditions: at 10 µM
[3] = target: T2, Phosphatidylinositol 5-phosphate 4-kinase type-2 beta (Homo sapiens) (UniProt P78356); test: Selectivity interaction (KinomeScan (DiscoverX)) EUB0000698a PIP4K2B; conditions: at 10 µM
T2 sequence (whole entry): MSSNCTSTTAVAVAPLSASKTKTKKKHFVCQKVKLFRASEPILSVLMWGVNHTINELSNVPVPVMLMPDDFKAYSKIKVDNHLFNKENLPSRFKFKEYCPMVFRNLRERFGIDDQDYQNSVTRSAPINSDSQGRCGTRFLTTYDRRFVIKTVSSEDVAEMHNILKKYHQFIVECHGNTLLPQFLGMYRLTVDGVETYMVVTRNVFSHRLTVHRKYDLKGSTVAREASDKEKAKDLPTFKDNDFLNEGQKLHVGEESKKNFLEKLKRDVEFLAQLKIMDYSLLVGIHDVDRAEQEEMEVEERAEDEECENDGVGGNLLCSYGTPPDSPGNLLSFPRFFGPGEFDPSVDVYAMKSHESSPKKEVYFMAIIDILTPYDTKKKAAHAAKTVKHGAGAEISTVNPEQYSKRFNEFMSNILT

[4] = target: Platelet-derived growth factor receptor beta (Homo sapiens, UniProt P09619); test: Selectivity interaction (KinomeScan (DiscoverX)) EUB0000698a PDGFRB; conditions: at 10 µM
[5] = target: Ribosomal protein S6 kinase beta-1 (Homo sapiens) (UniProt P23443); conditions: at 10 µM
[6] = target: Ribosomal protein S6 kinase alpha-4 (Homo sapiens) (UniProt O75676); test: Selectivity interaction (KinomeScan (DiscoverX)) EUB0000169b RPS6KA4; conditions: at 1 µM
[7] = target: T3, Serine/threonine-protein kinase ULK2 (Homo sapiens) (UniProt Q8IYT8); test: Selectivity interaction (KinomeScan (DiscoverX)) EUB0000178b ULK2; conditions: at 1 µM
T3 sequence (whole entry): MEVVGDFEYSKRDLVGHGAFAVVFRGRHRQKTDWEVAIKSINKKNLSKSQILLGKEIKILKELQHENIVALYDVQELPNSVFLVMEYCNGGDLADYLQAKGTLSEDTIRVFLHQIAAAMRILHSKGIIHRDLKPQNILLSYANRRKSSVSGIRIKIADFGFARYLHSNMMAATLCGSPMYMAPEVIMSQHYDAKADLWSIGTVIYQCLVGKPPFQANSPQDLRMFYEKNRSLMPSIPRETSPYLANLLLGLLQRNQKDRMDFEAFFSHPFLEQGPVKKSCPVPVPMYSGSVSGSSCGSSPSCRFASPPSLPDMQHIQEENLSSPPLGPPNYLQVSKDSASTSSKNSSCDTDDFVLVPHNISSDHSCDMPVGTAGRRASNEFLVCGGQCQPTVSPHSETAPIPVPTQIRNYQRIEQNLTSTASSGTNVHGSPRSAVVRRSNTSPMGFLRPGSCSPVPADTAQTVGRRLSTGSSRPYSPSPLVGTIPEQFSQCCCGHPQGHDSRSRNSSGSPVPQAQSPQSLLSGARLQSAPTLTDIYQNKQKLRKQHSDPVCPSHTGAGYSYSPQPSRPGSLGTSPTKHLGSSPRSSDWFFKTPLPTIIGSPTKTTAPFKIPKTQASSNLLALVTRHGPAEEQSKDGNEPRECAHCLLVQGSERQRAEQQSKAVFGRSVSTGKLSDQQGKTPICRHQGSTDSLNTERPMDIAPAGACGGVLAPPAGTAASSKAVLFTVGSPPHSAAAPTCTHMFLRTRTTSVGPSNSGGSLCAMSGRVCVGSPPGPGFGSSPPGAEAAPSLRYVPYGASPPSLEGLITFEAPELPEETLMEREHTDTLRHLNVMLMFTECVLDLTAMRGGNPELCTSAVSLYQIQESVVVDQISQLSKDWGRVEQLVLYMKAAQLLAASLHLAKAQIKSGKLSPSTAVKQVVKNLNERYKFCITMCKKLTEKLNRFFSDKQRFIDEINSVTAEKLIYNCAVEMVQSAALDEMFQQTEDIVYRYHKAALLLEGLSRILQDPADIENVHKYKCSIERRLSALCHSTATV

[8] = target: Aurora kinase A (Homo sapiens) (UniProt O14965); test: Selectivity interaction (KinomeScan (DiscoverX)) EUB0000178b STK6; conditions: at 1 µM
[9] = system: Tyrosine-protein kinase ABL1 (Homo sapiens), P00519 [M351T]; test: (§1) Selectivity interaction (KinomeScan (DiscoverX)) EUB0000178b ABL1; conditions: at 1 µM
[10] = system: Tyrosine-protein kinase ABL1 (Homo sapiens), P00519 [T315I]; test: as §1; conditions: at 1 µM
[11] = target: Mitogen-activated protein kinase kinase kinase 3 (Homo sapiens) (UniProt Q99759); test: Selectivity interaction (KinomeScan (DiscoverX)) EUB0000178b MAP3K3; conditions: at 1 µM
[12] = target: Phosphatidylinositol 4,5-bisphosphate 3-kinase catalytic subunit gamma isoform (Homo sapiens, UniProt P48736); test: Selectivity interaction (KinomeScan (DiscoverX)) EUB0000178b PIK3CG; conditions: at 1 µM
[13] = target: NUAK family SNF1-like kinase 2 (Homo sapiens) (UniProt Q9H093); test: Selectivity interaction (KinomeScan (DiscoverX)) EUB0000702a NUAK2; conditions: at 1 µM
[14] = system: Leucine-rich repeat serine/threonine-protein kinase 2 (Homo sapiens), Q5S007 [G2019S]; test: Selectivity interaction (KinomeScan (DiscoverX)) EUB0000702a LRRK2; conditions: at 1 µM
[15] = system: Hepatocyte growth factor receptor (Homo sapiens), P08581 [M1250T]; test: (§2) Selectivity interaction (KinomeScan (DiscoverX)) EUB0000702a MET; conditions: at 1 µM
[16] = system: Hepatocyte growth factor receptor (Homo sapiens), P08581 [Y1235D]; test: as §2; conditions: at 1 µM
[17] = target: Tyrosine-protein kinase receptor Tie-1 (Homo sapiens) (UniProt P35590); conditions: at 1 µM
[18] = target: Mast/stem cell growth factor receptor Kit (Homo sapiens, UniProt P10721); conditions: at 1 µM

Chain of Ribosomal protein S6 kinase alpha-4 (Homo sapiens) (O75676 whole entry, looked up): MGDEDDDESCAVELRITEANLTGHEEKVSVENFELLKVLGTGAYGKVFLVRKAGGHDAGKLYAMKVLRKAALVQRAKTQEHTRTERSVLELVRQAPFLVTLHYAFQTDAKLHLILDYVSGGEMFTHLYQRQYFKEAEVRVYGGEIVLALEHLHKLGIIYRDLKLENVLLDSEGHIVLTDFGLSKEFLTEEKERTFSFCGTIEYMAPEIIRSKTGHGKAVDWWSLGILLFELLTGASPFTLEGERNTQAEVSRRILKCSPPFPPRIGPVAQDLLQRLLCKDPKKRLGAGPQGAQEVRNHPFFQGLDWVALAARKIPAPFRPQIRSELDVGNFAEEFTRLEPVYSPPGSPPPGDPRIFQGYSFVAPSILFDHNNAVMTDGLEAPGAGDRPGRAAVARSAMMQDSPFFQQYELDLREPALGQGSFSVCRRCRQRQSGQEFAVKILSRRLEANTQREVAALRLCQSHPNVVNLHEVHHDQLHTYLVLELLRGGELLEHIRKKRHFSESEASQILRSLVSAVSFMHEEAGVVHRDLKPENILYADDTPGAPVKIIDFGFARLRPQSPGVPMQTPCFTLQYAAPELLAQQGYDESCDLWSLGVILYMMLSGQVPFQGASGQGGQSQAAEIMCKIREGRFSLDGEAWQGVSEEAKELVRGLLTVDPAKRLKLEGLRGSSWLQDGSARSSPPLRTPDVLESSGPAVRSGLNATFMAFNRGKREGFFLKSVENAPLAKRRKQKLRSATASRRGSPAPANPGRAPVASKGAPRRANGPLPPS
Chain of Leucine-rich repeat serine/threonine-protein kinase 2 (Homo sapiens), Q5S007 [G2019S] (Q5S007 whole entry G2019S): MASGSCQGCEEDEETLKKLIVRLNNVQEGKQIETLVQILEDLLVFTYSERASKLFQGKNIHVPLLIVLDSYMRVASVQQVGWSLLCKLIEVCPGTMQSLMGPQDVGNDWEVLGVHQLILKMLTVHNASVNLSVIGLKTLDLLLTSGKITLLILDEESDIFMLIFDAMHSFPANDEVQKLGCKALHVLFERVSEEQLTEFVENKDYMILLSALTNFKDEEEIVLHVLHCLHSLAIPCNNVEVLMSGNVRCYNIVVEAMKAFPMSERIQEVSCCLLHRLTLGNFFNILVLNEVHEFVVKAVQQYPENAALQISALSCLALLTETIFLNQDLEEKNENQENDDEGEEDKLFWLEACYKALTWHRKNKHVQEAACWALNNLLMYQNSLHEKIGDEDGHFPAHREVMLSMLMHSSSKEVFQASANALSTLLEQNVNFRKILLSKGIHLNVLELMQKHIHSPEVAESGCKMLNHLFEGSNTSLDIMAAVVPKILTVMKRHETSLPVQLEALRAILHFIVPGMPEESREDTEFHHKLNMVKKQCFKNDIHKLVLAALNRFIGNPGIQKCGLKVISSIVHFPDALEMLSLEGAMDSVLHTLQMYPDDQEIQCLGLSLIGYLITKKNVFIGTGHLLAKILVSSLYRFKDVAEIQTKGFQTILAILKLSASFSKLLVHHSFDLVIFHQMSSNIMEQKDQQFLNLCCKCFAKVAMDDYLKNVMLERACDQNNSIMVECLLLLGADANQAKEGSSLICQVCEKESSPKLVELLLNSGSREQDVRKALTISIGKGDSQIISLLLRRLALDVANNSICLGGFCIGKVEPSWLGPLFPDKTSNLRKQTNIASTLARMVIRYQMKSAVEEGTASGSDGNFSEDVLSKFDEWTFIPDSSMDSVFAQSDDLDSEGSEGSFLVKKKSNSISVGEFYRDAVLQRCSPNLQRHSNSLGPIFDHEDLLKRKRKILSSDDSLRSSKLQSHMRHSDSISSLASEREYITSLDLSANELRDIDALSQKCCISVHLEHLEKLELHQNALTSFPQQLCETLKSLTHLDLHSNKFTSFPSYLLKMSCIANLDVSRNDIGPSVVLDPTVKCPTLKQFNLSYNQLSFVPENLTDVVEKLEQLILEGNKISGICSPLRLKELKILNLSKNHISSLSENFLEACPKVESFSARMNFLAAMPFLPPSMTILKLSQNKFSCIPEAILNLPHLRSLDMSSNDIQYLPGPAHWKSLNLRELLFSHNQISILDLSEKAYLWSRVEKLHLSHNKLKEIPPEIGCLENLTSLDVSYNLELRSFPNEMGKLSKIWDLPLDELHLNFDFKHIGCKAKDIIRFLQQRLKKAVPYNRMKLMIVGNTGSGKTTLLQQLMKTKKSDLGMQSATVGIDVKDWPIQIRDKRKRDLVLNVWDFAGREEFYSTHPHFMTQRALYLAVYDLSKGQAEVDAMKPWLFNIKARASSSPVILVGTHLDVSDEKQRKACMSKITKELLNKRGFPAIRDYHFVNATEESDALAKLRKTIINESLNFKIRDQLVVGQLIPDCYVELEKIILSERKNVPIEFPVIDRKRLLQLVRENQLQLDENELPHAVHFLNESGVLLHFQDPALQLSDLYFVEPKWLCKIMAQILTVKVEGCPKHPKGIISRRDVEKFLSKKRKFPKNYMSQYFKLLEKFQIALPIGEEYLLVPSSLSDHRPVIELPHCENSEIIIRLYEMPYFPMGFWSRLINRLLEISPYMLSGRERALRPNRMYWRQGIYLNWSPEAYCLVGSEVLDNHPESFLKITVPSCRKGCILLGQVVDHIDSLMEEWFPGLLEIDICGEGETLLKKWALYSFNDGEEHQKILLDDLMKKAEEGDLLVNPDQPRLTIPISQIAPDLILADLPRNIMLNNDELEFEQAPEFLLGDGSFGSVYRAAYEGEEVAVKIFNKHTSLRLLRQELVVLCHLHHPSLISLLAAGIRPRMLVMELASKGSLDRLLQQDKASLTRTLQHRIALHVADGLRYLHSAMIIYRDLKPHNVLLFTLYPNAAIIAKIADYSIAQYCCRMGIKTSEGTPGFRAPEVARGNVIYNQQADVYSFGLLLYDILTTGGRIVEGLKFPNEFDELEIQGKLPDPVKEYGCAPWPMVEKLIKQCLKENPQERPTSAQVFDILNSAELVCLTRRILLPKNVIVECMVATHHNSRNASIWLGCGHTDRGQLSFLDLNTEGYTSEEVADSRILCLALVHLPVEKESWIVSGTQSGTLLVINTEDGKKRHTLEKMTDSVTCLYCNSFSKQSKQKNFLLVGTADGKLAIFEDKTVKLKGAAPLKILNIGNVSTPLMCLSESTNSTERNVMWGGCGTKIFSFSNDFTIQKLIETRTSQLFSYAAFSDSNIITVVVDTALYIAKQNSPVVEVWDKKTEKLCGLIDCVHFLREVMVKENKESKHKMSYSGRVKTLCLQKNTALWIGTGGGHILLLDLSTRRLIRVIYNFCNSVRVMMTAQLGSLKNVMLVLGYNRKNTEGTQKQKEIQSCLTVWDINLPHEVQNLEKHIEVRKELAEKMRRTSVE
Chain of Tyrosine-protein kinase receptor Tie-1 (Homo sapiens) (P35590 whole entry): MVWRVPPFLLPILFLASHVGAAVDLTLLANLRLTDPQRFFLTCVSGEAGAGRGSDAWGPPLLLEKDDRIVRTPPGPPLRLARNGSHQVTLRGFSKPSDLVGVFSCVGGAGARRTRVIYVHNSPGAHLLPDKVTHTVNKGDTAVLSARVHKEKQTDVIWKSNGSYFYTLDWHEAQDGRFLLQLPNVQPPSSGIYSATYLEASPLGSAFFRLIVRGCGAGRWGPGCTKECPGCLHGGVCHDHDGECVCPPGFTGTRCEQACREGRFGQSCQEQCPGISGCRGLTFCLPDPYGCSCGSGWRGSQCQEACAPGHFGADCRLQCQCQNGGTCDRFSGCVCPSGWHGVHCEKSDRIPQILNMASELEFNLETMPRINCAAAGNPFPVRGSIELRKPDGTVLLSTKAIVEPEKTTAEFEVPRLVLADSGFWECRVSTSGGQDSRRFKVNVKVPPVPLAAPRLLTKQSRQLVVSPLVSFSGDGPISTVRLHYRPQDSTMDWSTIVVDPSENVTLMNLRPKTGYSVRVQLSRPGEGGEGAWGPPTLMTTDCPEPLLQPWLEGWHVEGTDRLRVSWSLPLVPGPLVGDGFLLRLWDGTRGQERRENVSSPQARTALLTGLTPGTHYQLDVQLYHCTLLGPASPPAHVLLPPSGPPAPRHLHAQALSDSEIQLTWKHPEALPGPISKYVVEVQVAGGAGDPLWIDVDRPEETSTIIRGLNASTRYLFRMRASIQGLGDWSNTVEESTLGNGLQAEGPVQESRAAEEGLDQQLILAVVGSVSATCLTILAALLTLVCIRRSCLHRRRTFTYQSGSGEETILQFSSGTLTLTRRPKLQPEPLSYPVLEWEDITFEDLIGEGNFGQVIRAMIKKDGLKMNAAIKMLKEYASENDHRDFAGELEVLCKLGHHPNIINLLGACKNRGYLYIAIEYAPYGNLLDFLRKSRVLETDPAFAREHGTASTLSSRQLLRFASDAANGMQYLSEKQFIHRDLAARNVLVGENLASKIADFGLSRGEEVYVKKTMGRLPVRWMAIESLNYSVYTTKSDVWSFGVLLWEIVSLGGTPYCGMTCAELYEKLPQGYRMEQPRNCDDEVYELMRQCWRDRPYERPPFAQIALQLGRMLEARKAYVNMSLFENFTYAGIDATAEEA
Chain of Aurora kinase A (Homo sapiens) (O14965 whole entry): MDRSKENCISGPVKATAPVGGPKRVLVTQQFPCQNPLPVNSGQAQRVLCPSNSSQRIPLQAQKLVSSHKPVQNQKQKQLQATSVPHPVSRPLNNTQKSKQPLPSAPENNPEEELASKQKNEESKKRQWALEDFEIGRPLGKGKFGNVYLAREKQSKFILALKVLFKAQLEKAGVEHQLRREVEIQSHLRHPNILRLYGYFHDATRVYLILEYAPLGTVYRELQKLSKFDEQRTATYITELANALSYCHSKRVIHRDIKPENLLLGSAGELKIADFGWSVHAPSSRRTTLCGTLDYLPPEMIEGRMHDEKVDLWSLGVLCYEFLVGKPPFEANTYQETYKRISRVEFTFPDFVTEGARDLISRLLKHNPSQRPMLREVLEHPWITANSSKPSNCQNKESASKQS

SMILES: COc1cc2ncn(-c3cc(OCc4ccccc4C(F)(F)F)c(C(N)=O)s3)c2cc1OC [GW843682X]
% of control [2]: 0.3% | % of control [3]: 6.6% | % of control [4]: 5.3%

SMILES: CC[C@@H]1C(=O)N(C)c2cnc(Nc3ccc(C(=O)NC4CCN(C)CC4)cc3OC)nc2N1C1CCCC1
% of control [5]: 102% | % of control [6]: 0.3%

SMILES: CN1C(=O)c2sccc2N(C)c2nc(Nc3ccc(S(N)(=O)=O)cc3)ncc21
% of control [7]: 4.8% | % of control [8]: 0.05% | % of control [9]: 5.5% | % of control [10]: 1.6% | % of control [11]: 2% | % of control [12]: 0.15%

SMILES: CCOc1cn(-c2ccc(F)cc2C)nc1C(=O)Nc1ccc(Oc2ccnc3cc(OC)c(OC)cc23)c(F)c1
% of control [17]: < 10% | % of control [18]: < 10%

The remaining lines, values ahead:

IC50 [1]: 0.847 µM
SMILES: C[C@H](c1ccnc(Nc2nc3ccc(-c4cc(N(C)C)ncn4)cc3[nH]2)c1)N1CCN(C(=O)CC(F)(F)F)CC1 [BAY-985]

% of control [13]: 7.6% | % of control [14]: 7.3% | % of control [15]: 6.8% | % of control [16]: 10%
SMILES: CN(c1ccnc(CNc2nc(Nc3ccc4c(c3)CC(=O)N4)ncc2C(F)(F)F)n1)S(C)(=O)=O [PF-00911705]
